Values of other authors as cited in patent US6696575B2, “Biodegradable, electrically conducting polymer for tissue engineering applications” (Board of Regents, The University of Texas System, priority 2001, dated 2004).

How the values were obtained:
[1] = tested on: mouse; conditions: oral administration
[2] = tested on: rat; conditions: oral administration
[3] = tested on: rat sciatic nerve; conditions: in vivo

Which “one-half lethal dose (LD50)” value [1] does the source give for `OCCCO` [Propanediol, 1,3-propanediol] here?
The value was 5000 mg/kg.

With `CCO` [ethanol] as the compound, how does the “one-half lethal dose (LD50)” value [2] read?
Its value is 7000 mg/kg.

For `CCCCCC(=O)O` [hexanoic acid], which “one-half lethal dose (LD50)” value [2] is on record?
Its value is 3000 mg/kg.

For polypyrrole [PP], which “tissue response on implantation” value [3] is on record?
Its value is “provoked little adverse tissue response”.
